Patent publication US20250282768A1 (Janssen Pharmaceutica NV, priority 2022, published 2025)

System: p-IKKa levels in L363 (NIK translocated multiple myeloma) cells
Test: Assay 2: Effect of compounds on p-IKKa levels in L363 (NIK translocated multiple myeloma) cells
Format: cell-based
Conditions: Homo sapiens, L-363, 6 h, read-out: Assay 2 IC50 (nM), p-IKKa (Ser 176/180) in BAFF stimulated L363 cells with MG132, 6 h; average if tested more than once
Method in brief: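 Read-out is p-IKKa Ser176/180 by AlphaLISA SureFire in lysates. Cells were BAFF-primed (250 ng/ml) overnight or left unstimulated, then exposed 6 h at 37 °C to compound with MG132 (10 μM), 0.3% DMSO. IC50 from sigmoidal curve fit, normalized between stimulated and unstimulated controls.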

CN1CC[C@@](O)(c2cc(-c3cccc(-c4ccnc(NC5CCOc6ncccc65)n4)n3)no2)C1=O (mixture of isomers) [Example 472, (3R)-3-(3-(6-(2-((3,4-Dihydro-2H-pyrano[2,3-b]pyridin-4-yl)amino)pyrimidin-4-yl)pyridin-2-yl)isoxazol-5-yl)-3-hydroxy-1-methylpyrrolidin-2-one] and Cc1cccnc1[C@@H](C)Nc1nccc(-c2cccc(-c3cc([C@]4(O)CCN(C)C4=O)on3)n2)n1 (single isomer, unassigned) [Example 156] fall in the same range of IC50: 50 to 500 nM for the first, 50 to 500 nM for the second.

Cc1nccc(Nc2nccc(-c3cccc(-c4cc([C@]5(O)CCN(C)C5=O)on4)n3)n2)c1F [Example 334, (R)-3-(3-(6-(2-((3-Fluoro-2-methylpyridin-4-yl)amino)pyrimidin-4-yl)pyridin-2-yl)isoxazol-5-yl)-3-hydroxy-1-methylpyrrolidin-2-one] and Cc1oncc1Nc1nccc(-c2cccc(-c3cc([C@]4(O)CCN(C)C4=O)on3)n2)n1 [Example 63, (R)-3-Hydroxy-1-methyl-3-(3-(6-(2-((5-methylisoxazol-4-yl)amino)pyrimidin-4-yl)pyridin-2-yl)isoxazol-5-yl)pyrrolidin-2-one] cannot be ordered by IC50: less than 50 nM for the first, less than 50 nM for the second.

CN1CC[C@@](O)(c2cc(-c3cccc(-c4ccnc(Nc5cnn6c5CN(CC5CC5)CC6)n4)n3)no2)C1=O [Example 433, (R)-3-(3-(6-(2-((5-(Cyclopropylmethyl)-4,5,6,7-tetrahydropyrazolo[1,5-a]pyrazin-3-yl)amino)pyrimidin-4-yl)pyridin-2-yl)isoxazol-5-yl)-3-hydroxy-1-methylpyrrolidin-2-one] and CN1CC[C@@](O)(c2cc(-c3cccc(-c4ccnc(Nc5cnn(C)c5Cl)n4)n3)no2)C1=O [Example 297, (R)-3-(3-(6-(2-((5-Chloro-1-methyl-1H-pyrazol-4-yl)amino)pyrimidin-4-yl)pyridin-2-yl)isoxazol-5-yl)-3-hydroxy-1-methylpyrrolidin-2-one] cannot be ordered by IC50: less than 50 nM for the first, less than 50 nM for the second.

CN1C(=O)[C@](O)(c2cc(-c3cccc(-c4ccnc(Nc5ccn(C)n5)n4)n3)no2)[C@H]2C[C@H]21 [Example 93, (1R,4R,5S)-4-Hydroxy-2-methyl-4-(3-(6-(2-((1-methyl-1H-pyrazol-3-yl)amino)pyrimidin-4-yl)pyridin-2-yl)isoxazol-5-yl)-2-azabicyclo[3.1.0]hexan-3-one] and CN1CC[C@@](O)(c2cc(-c3cccc(-c4ccnc(Nc5ccn(CCN)n5)n4)n3)no2)C1=O [Example 204, (R)-3-(3-(6-(2-((1-(2-Aminoethyl)-1H-pyrazol-3-yl)amino)pyrimidin-4-yl)pyridin-2-yl)isoxazol-5-yl)-3-hydroxy-1-methylpyrrolidin-2-one] fall in the same range of IC50: 50 to 500 nM for the first, 50 to 500 nM for the second.

Compared with CN1CC[C@@](O)(c2cc(-c3cccc(-c4ccnc(NCc5ccn(C)n5)n4)n3)no2)C1=O [Example 367, (R)-3-Hydroxy-1-methyl-3-(3-(6-(2-(((1-methyl-1H-pyrazol-3-yl)methyl)amino)pyrimidin-4-yl)pyridin-2-yl)isoxazol-5-yl)pyrrolidin-2-one], CN1CC[C@@](O)(c2cc(-c3cccc(-c4ccnc(Nc5ncn(C)n5)n4)n3)no2)C1=O [Example 318, (R)-3-Hydroxy-1-methyl-3-(3-(6-(2-((1-methyl-1H-1,2,4-triazol-3-yl)amino)pyrimidin-4-yl)pyridin-2-yl)isoxazol-5-yl)pyrrolidin-2-one] is higher in IC50: 50 to 500 nM for the first, greater than 500 nM for the second. The first is the more potent here.

First: Cc1cc([C@@H](C)Nc2nccc(-c3cccc(-c4cc([C@]5(O)CCN(C)C5=O)on4)n3)n2)no1 [Example 380, (R)-3-Hydroxy-1-methyl-3-(3-(6-(2-(((R)-1-(5-methylisoxazol-3-yl)ethyl)amino)pyrimidin-4-yl)pyridin-2-yl)isoxazol-5-yl)pyrrolidin-2-one]
Second: Cc1nnc(Nc2nccc(-c3cccc(-c4cc([C@]5(O)CCN(C)C5=O)on4)n3)n2)o1 [Example 319, (R)-3-Hydroxy-1-methyl-3-(3-(6-(2-((5-methyl-1,3,4-oxadiazol-2-yl)amino)pyrimidin-4-yl)pyridin-2-yl)isoxazol-5-yl)pyrrolidin-2-one]
The IC50 of the first is lower: 50 to 500 nM for the first, greater than 500 nM for the second. The first is the more potent here.

First: CN1CC[C@@](O)(c2cc(-c3cccc(-c4ccnc(Nc5cc6n(n5)CC(C)(C)OC6)n4)n3)no2)C1=O [Example 192, (R)-3-(3-(6-(2-((6,6-Dimethyl-6,7-dihydro-4H-pyrazolo[5,1-c][1,4]oxazin-2-yl)amino)pyrimidin-4-yl)pyridin-2-yl)isoxazol-5-yl)-3-hydroxy-1-methylpyrrolidin-2-one]
Second: CN1CC[C@@](O)(c2cc(-c3cccc(-c4ccnc(Nc5ccon5)n4)n3)no2)C1=O [Example 186, (R)-3-Hydroxy-3-(3-(6-(2-(isoxazol-3-ylamino)pyrimidin-4-yl)pyridin-2-yl)isoxazol-5-yl)-1-methylpyrrolidin-2-one]
The IC50 of the first is lower: less than 50 nM for the first, 50 to 500 nM for the second. The first is the more potent here.

First: COc1cccnc1Nc1nccc(-c2cccc(-c3cc([C@]4(O)CCN(C)C4=O)on3)n2)n1 [Example 317, (R)-3-Hydroxy-3-(3-(6-(2-((3-methoxypyridin-2-yl)amino)pyrimidin-4-yl)pyridin-2-yl)isoxazol-5-yl)-1-methylpyrrolidin-2-one]
Second: CN1CC[C@@](O)(c2cc(-c3cccc(-c4ccnc(Nc5ccccn5)n4)n3)no2)C1=O [Example 248, (R)-3-Hydroxy-1-methyl-3-(3-(6-(2-(pyridin-2-ylamino)pyrimidin-4-yl)pyridin-2-yl)isoxazol-5-yl)pyrrolidin-2-one]
The IC50 of the first is higher: greater than 500 nM for the first, 50 to 500 nM for the second.

Cc1c(Nc2nccc(-c3cccc(-c4cc([C@@]5(O)C(=O)N(C)CC5(F)F)on4)n3)n2)cnn1CC(C)(C)O [Example 242, (R)-4,4-Difluoro-3-hydroxy-3-(3-(6-(2-((1-(2-hydroxy-2-methylpropyl)-5-methyl-1H-pyrazol-4-yl)amino)pyrimidin-4-yl)pyridin-2-yl)isoxazol-5-yl)-1-methylpyrrolidin-2-one] and CN1CC[C@@](O)(c2cc(-c3cccc(-c4ccnc(Nc5ccnn6ccnc56)n4)n3)no2)C1=O [Example 127, (R)-3-Hydroxy-3-(3-(6-(2-(imidazo[1,2-b]pyridazin-8-ylamino)pyrimidin-4-yl)pyridin-2-yl)isoxazol-5-yl)-1-methylpyrrolidin-2-one] fall in the same range of IC50: 50 to 500 nM for the first, 50 to 500 nM for the second.

First: CN1CC[C@@](O)(c2cc(-c3cccc(-c4ccnc(Nc5cnn(CCN6CCOCC6)c5)n4)n3)no2)C1=O [Example 62, (R)-3-Hydroxy-1-methyl-3-(3-(6-(2-((1-(2-morpholinoethyl)-1H-pyrazol-4-yl)amino)pyrimidin-4-yl)pyridin-2-yl)isoxazol-5-yl)pyrrolidin-2-one]
Second: C[C@@H](Nc1nccc(-c2cccc(-c3cc([C@]4(O)CCN(C)C4=O)on3)n2)n1)C(=O)N1CCCCC1 [Example 179, (R)-3-Hydroxy-1-methyl-3-(3-(6-(2-(((R)-1-oxo-1-(piperidin-1-yl)propan-2-yl)amino)pyrimidin-4-yl)pyridin-2-yl)isoxazol-5-yl)pyrrolidin-2-one]
The IC50 of the first is lower: less than 50 nM for the first, 50 to 500 nM for the second. The first is the more potent here.

C[C@H](Nc1nccc(-c2cccc(-c3cc([C@]4(O)CCN(C)C4=O)on3)n2)n1)C(=O)N1CCC(F)(F)C1 [Example 174, (R)-3-(3-(6-(2-(((S)-1-(3,3-Difluoropyrrolidin-1-yl)-1-oxopropan-2-yl)amino)pyrimidin-4-yl)pyridin-2-yl)isoxazol-5-yl)-3-hydroxy-1-methylpyrrolidin-2-one] showed an IC50 of 50 to 500 nM.
